# Assay results: patent publication US20220378923A1, “BET DEGRADER” (KYOWA KIRIN CO., LTD., priority 2019, published 2022)
# Target: T1, interaction between BRD2 and E3 ligase DCAF16 (Homo sapiens, UniProt P25440)
# T1 construct: expressed in transfected cells; host or cells: HEK293
# Test: Verification of BET-DCAF16 interaction, comparative test with known compounds (Test Example 8)
# Type: cell-based
# Details: test compound 1.0 μmol/L; HEK293 cells expressing Nluc-BRD2 and DCAF16-HaloTag; MLN4924 instead of bortezomib; substrate diluted 200-fold
# Protocol: Cultured HEK293 cells were washed with DPBS, no calcium, no magnesium (DPBS: Code No. 14190144, Thermo Fisher Scientific) and harvested using TrypLE™ Express Enzyme (1×), phenol red (TrypLE: Code No. 12605036, Thermo Fisher Scientific), and prepared to be 4.0×10^5 cells/mL in DMEM. A volume of 12 mL of the cell suspension was seeded in a Falcon® 100 mm×20 mm cell culture dish and cultured in a carbon dioxide gas incubator at 37° C. for 6 hours. For one dish, 12 μg of pFC27K_DCAF16, 0.12 μg of p FN31A_BRD2, 48 μL of FuGENE® HD Transfection Reagent (Code No. E2312, Promega) were added to 600 μL of Opti-MEM™ I Reduced Serum Medium, no phenol red (Opti-MEM: Code No. 11058021, Thermo Fisher Scientific) and mixed. The mixture was allowed to stand for 15 minutes and added to HEK293 cells. After 20 hours, the cells were washed with DPBS, no calcium, no magnesium, harvested from the dish using TrypLE, and then neutralized in DMEM. After centrifugation, the supernatant was discarded, and the cells were prepared to be 2.2×10^5 cells/mL using Opti-MEM containing 4% FBS. HaloTag® NanoBRET™ 618 Ligand contained in NanoBRET™ Nano-Glo® Detection System (Code No. N1662, Promega) and bortezomib as a proteasome inhibitor were added to be a 1000-fold dilution. In addition, a group was prepared to which DMSO was added instead of HaloTag® NanoBRET™ 618 Ligand. 90 μL of the cell suspension was seeded in CulturPlate-96 (Code No. 6005688, PerkinElmer), and allowed to stand in a carbon dioxide gas incubator at 37° C. for 30 minutes. A volume of 10 mmol/L of a solution of the test compound in DMSO was adjusted to be 100 μmol/L with Opti-MEM, 10 μL of the solution was added to each well, and then the mixture was allowed to stand in a carbon dioxide gas incubator at 37° C. for 2 hours. At this time, all the groups were prepared so that the final concentration of DMSO was 0.1 vol % including the group to which the test compound was not added. NanoBRET™ Nano-Glo® Substrate included in the NanoBRET™ Nano-Glo® Detection System was diluted 100-fold with Opti-MEM. After adding 25 μL of the dilution each and stirring for 30 seconds, measurement was performed with an Emission Filter of 460 nm and 620 nm using EnVision (PerkinElmer). The BRET ratio of 10 μmol/L for each test compound was calculated using the following formula. The experiment was performed by n=3 and the average value was calculated.
# BRET ratio={(A/B)−(C/D)}×1000 • A: value at 620 nm filter of the well with addition of test compound and 618 Ligand • B: value at 460 nm filter of the well with addition of test compound and 618 Ligand • C: value at 620 nm filter of the well without addition of test compound or 618 Ligand • D: value at 460 nm filter of the well without addition of test compound or 618 Ligand
# For comparison with the known comparative compound 1, the enhancement of the BET-DCAF16 interaction was verified by the same method as in test example 7. However, for the purpose of system optimization, bortezomib was changed to Neddylation inhibitor MLN4924 (Code No. HY-10484, MedChem Express), and the dilution ratio of NanoBRET™ Nano-Glo® Substrate was set to 200-fold. The BRET ratio of 1.0 μmol/L of each test compound was calculated, and the results are shown as in Table 23 below.
# T1 sequence (P25440 whole entry): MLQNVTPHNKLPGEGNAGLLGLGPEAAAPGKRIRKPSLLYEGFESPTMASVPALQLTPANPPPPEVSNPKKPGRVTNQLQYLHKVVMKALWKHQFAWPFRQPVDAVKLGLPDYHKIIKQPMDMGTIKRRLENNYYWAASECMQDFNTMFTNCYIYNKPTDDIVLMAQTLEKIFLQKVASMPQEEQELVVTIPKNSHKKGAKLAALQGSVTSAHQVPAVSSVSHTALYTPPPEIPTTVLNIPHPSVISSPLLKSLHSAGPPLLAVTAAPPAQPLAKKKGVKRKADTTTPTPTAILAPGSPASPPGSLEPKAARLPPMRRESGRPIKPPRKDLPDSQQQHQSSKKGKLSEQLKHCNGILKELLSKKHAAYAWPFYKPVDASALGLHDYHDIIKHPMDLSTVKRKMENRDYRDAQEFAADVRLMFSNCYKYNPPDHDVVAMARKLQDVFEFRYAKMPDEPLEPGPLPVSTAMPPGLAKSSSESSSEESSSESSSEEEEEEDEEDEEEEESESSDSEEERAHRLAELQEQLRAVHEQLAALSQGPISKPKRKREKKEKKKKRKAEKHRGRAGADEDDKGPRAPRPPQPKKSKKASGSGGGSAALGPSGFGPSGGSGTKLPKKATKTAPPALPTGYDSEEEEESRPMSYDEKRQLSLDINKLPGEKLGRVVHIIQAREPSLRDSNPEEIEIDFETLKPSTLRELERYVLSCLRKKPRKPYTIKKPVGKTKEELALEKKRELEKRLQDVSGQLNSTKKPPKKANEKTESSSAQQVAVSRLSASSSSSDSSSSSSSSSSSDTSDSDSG
# T1 sequence (Q9NXF7 whole entry partner): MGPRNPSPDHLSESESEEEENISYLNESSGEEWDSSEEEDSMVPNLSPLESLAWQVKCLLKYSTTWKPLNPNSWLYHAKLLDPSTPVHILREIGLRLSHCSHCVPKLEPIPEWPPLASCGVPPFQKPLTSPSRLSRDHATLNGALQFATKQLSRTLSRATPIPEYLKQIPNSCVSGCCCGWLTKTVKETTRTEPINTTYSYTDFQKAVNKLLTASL
row,Structure (SMILES),BRET Ratio
1,"CCC(=O)N1c2ccccc2[C@H](Nc2ccc(C(=O)NCC(=O)CNC(=O)c3ccc(N[C@@H]4C[C@H](C)N(C(=O)CC)c5ccccc54)cc3)cc2)C[C@@H]1C [Compound 1l, N,N′-(2-Oxopropane-1,3-diyl)bis(4-{[(2S,4R)-2-methyl-1-propionyl-1,2,3,4-tetrahydroquinolin-4-yl]amino}benzamide)]",14.93
2,"CCC(=O)N1c2ccccc2[C@H](Nc2ccc(C(=O)NCCCNC(=O)c3ccc(C4=N[C@@H](CC(=O)OC(C)(C)C)c5nnc(C)n5-c5sc(C)c(C)c54)cc3)cc2)C[C@@H]1C [Compound 1h, tert-Butyl 2-[(S)-2,3,9-trimethyl-4-(4-{[3-(4-{[(2S,4R)-2-methyl-1-propionyl-1,2,3,4-tetrahydroquinolin-4-yl]amino}benzamide)propyl]carbamoyl}phenyl)-6H-thieno[3,2-f][1,2,4]triazolo[4,3-a][1,4]diazepin-6-yl]acetate]",10.95
3,"CCC(=O)N1c2ccccc2[C@H](Nc2ccc(C(=O)NCc3cn(-c4ccc(N[C@@H]5C[C@H](C)N(C(=O)CC)c6ccccc65)cc4)nn3)cc2)C[C@@H]1C [Compound 3a, 4-{[(2S,4R)-2-Methyl-1-propionyl-1,2,3,4-tetrahydroquinolin-4-yl]amino}-N-{[1-(4-{[(2S,4R)-2-methyl-1-propionyl-1,2,3,4-tetrahydroquinolin-4-yl]amino}phenyl)-1H-1,2,3-triazol-4-yl]methyl}benzamide]",14.46
4,"CCC(=O)N1c2ccccc2[C@H](Nc2ccc(C(=O)N3CCn4c(-c5ccc(N[C@@H]6C[C@H](C)N(C(=O)CC)c7ccccc76)cc5)cnc4C3)cc2)C[C@@H]1C [Compound 3e, 1-[(2S,4R)-2-Methyl-4-({4-[3-(4-{[(2S,4R)-2-methyl-1-propionyl-1,2,3,4-tetrahydroquinolin-4-yl]amino}phenyl)-5,6,7,8-tetrahydroimidazo[1,2-a]pyrazine-7-carbonyl]phenyl}amino)-3,4-dihydroquinolin-1(2H)-yl]propan-1-one]",9.58
5,"CCNC(=O)C[C@@H]1N=C(c2ccc(SCCCCSc3ccc(C4=N[C@@H](CC(=O)NCC)c5nnc(C)n5-c5ccc(OC)cc54)cc3)cc2)c2cc(OC)ccc2-n2c(C)nnc21 [compound 1, 2,2′-((4S,4'S)-6,6′-((butane-1,4-diylbis(sulfanediyl))bis(4,1-phenylene))bis(8-methoxy-1-methyl-4H-benzo[f][1,2,4]triazolo[4,3-a][1,4]diazepine-6,4-diyl))bis(N-ethylacetamide), reference compound]",1.93
6,"CCC(=O)N1c2ccccc2[C@H](Nc2ccc(NC(=O)N3CCN(C(=O)C4CCC(N[C@@H]5C[C@H](C)N(C(=O)CC)c6ccccc65)CC4)CC3)cc2)C[C@@H]1C (stereo partly drawn) [Compound 7p, 4-((1R,4r)-4-(((2S,4R)-2-Methyl-1-propionyl-1,2,3,4-tetrahydroquinolin-4-yl)amino)cyclohexane-1-carbonyl)-N-(4-(((2S,4R)-2-methyl-1-propionyl-1,2,3,4-tetrahydroquinolin-4-yl)amino)phenyl)piperazine-1-carboxamide]",11.57
7,"CCC(=O)N1c2ccccc2[C@H](Nc2ccc(NC(=O)CCCC(=O)Nc3ccc(N[C@@H]4C[C@H](C)N(C(=O)CC)c5ccccc54)cc3)cc2)C[C@@H]1C [Compound 6k, N^1,N^5-Bis(4-(((2S,4R)-2-methyl-1-propionyl-1,2,3,4-tetrahydroquinolin-4-yl)amino)phenyl)glutaramide]",12.62
8,"CCC(=O)N1c2ccccc2[C@H](Nc2ccc(NC(=O)CCCC(=O)NC3CCC(N[C@@H]4C[C@H](C)N(C(=O)CC)c5ccccc54)CC3)cc2)C[C@@H]1C (stereo partly drawn) [Compound 7o, N^1-((1R,4r)-4-(((2S,4R)-2-Methyl-1-propionyl-1,2,3,4-tetrahydroquinolin-4-yl)amino)cyclohexyl)-N^5-(4-(((2S,4R)-2-methyl-1-propionyl-1,2,3,4-tetrahydroquinolin-4-yl)amino)phenyl)glutaramide]",13.00
9,"CCC(=O)N1c2ccccc2[C@H](Nc2ccc(NC(=O)CCCC(=O)NC3CCN(Cc4cc(O)cc(-c5c(C)noc5C)c4)CC3)cc2)C[C@@H]1C [Compound 12c, N^1-(1-(3-(3,5-Dimethylisoxazol-4-yl)-5-hydroxybenzyl)piperidin-4-yl)-N^5-(4-(((2S,4R)-2-methyl-1-propionyl-1,2,3,4-tetrahydroquinolin-4-yl)amino)phenyl)glutaramide]",13.16
10,"CCC(=O)N1c2ccccc2[C@H](Nc2ccc(NC(=O)CNC(=O)N[C@H]3CC[C@H](N[C@@H]4C[C@H](C)N(C(=O)CC)c5ccccc54)CC3)cc2)C[C@@H]1C [Compound 8j, 2-(3-((1R,4R)-4-(((2S,4R)-2-Methyl-1-propionyl-1,2,3,4-tetrahydroquinolin-4-yl)amino)cyclohexyl)ureido)-N-(4-(((2S,4R)-2-methyl-1-propionyl-1,2,3,4-tetrahydroquinolin-4-yl)amino)phenyl)acetamide]",11.91
11,"CCC(=O)N1c2ccccc2[C@H](Nc2ccc(-n3cc(CNC(=O)c4ccc(Cn5c(CC)cc6c5CCCC6=O)cc4)nn3)cc2)C[C@@H]1C [Compound 15f, 4-((2-Ethyl-4-oxo-4,5,6,7-tetrahydro-1H-indol-1-yl)methyl)-N-((1-(4-(((2S,4R)-2-methyl-1-propionyl-1,2,3,4-tetrahydroquinolin-4-yl)amino)phenyl)-1H-1,2,3-triazol-4-yl)methyl)benzamide]",12.43
12,"CCC(=O)N1c2ccccc2[C@H](Nc2ccc(-n3cc(CCNC(=O)[C@H]4CC[C@H](N[C@@H]5C[C@H](C)N(C(=O)CC)c6ccccc65)CC4)nn3)cc2)C[C@@H]1C [Compound 8a, (1R,4r)-4-(((2S,4R)-2-Methyl-1-propionyl-1,2,3,4-tetrahydroquinolin-4-yl)amino)-N-(2-(1-(4-(((2S,4R)-2-methyl-1-propionyl-1,2,3,4-tetrahydroquinolin-4-yl)amino)phenyl)-1H-1,2,3-triazol-4-yl)ethyl)cyclohexane-1-carboxamide]",12.45
13,"Cc1sc2c(c1C)C(c1ccc(C(=O)NCc3cn(-c4ccc(C5=N[C@@H](CC(=O)OC(C)(C)C)c6nnc(C)n6-c6sc(C)c(C)c65)cc4)nn3)cc1)=N[C@@H](CC(=O)OC(C)(C)C)c1nnc(C)n1-2 [Compound 3b, tert-Butyl 2-[(S)-4-(4-{4-[(4-{(S)-6-[2-(tert-butoxy)-2-oxoethyl]-2,3,9-trimethyl-6H-thieno[3,2-f][1,2,4]triazolo[4,3-a][1,4]diazepin-4-yl}benzamide)methyl]-1H-1,2,3-triazol-1-yl}phenyl)-2,3,9-trimethyl-6H-thieno[3,2-f][1,2,4]triazolo[4,3-a][1,4]diazepin-6-yl]acetate]",9.69
14,"CCC(=O)N1c2ccccc2[C@H](Nc2ccc(NC(=O)CCCC(=O)Nc3ccc(Cn4c(C(=O)OCCN(C)C)cc5c4CCCC5=O)cc3)cc2)C[C@@H]1C [Compound 15a, 2-(Dimethylamino)ethyl 1-(4-(5-((4-(((2S,4R)-2-methyl-1-propionyl-1,2,3,4-tetrahydroquinolin-4-yl)amino)phenyl)amino)-5-oxopentanamide)benzyl)-4-oxo-4,5,6,7-tetrahydro-1H-indole-2-carboxylate]",9.59
